The values that follow come from patent US11584747B2, “Substituted pyridopyrimidinonyl compounds useful as T cell activators” (BRISTOL-MYERS SQUIBB COMPANY, priority 2019, dated 2023).

For test [1], the target named is T1, human DGKα (Homo sapiens (Human), UniProt P23743). Briefly: DGKα LIPGLO assay (extruded liposome substrate, ADP-Glo luminescence). The test is classed as biochemical. The note with it: liposome assay; read-out: DGK alpha LIPGLO IC50.
The next test deals with human DGKζ (Homo sapiens (Human), UniProt Q13574). Kind of test: DGKζ LIPGLO assay (extruded liposome substrate, ADP-Glo luminescence). The note with it: liposome assay; read-out: DGK zeta LIPGLO IC50. The test is classed as biochemical.
Test [2] deals with T1, human DGKα. Kind of test: DGKα ADPGLO assay (detergent/lipid micelle substrate). The test is classed as biochemical. The following applies: truncated DGK alpha; read-out: DGK alpha ADPGLO (Truncated) IC50. The protocol: DGK Alpha ADPGLO (Truncated) IC50 (uM)
The detergent/lipid micelle was prepared by combining 15 g phosphatidylserine (Avanti 840035P) and 1 g diacylglycerol (8008110) and dissolving into 150 mL chloroform in a 2 L round bottom flask. Chloroform was removed under high vacuum by rotary evaporation. […] The lipid/detergent solution was split into 5 mL aliquots and stored at −80° C.

Test [3] concerns human venous whole blood (IFN-γ). Briefly: Human whole blood IFN-γ assay. It counts as cell-based. The following applies: whole blood, normalized to 3 μM reference compound as 100% activation, read-out: IFN-γ Whole Blood Normalized EC50. The protocol:
Human venous whole blood (22.5 μL per well), obtained from healthy donors, was pre-treated with compounds for one hour at 37° C. in a humidified 95% air/5% CO2 incubator. The blood was stimulated with 2.5 μL anti-human CD3 and anti-CD28 mAb at a final concentration of 1 μg/mL each for 24 hours at 37° C. IFN-γ in the supernatants was measured using AlphLISA kit (Cat #AL217).

Another test deals with whole blood (pERK). Briefly: pERK Whole Blood assay (Table A; no whole-blood pERK method described). It counts as cell-based. The following applies: normalized.

Where two headings read alike, the source gives them in different places.

T1 sequence (P23743 whole entry, looked up): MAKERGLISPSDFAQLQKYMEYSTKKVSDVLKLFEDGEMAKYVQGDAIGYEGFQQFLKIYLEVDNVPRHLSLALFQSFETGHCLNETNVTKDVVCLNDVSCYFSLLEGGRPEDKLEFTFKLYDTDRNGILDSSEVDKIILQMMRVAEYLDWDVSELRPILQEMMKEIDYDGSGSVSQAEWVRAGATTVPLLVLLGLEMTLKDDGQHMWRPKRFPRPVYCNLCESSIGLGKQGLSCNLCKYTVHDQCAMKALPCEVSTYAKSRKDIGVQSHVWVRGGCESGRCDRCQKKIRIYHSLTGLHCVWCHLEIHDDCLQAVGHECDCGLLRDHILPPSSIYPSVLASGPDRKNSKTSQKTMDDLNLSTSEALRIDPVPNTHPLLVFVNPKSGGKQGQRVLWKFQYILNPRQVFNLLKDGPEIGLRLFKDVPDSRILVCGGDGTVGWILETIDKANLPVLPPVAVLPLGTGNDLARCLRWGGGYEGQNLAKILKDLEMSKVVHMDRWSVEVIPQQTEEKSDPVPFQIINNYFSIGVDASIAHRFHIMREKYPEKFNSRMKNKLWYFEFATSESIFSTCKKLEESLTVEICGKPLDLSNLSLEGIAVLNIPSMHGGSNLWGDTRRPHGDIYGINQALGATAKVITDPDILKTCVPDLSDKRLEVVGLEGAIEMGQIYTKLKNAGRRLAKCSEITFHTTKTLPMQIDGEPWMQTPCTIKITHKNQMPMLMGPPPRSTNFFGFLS
Chain of human DGKζ (Q13574 other isoform, or with tags, fused parts or gaps): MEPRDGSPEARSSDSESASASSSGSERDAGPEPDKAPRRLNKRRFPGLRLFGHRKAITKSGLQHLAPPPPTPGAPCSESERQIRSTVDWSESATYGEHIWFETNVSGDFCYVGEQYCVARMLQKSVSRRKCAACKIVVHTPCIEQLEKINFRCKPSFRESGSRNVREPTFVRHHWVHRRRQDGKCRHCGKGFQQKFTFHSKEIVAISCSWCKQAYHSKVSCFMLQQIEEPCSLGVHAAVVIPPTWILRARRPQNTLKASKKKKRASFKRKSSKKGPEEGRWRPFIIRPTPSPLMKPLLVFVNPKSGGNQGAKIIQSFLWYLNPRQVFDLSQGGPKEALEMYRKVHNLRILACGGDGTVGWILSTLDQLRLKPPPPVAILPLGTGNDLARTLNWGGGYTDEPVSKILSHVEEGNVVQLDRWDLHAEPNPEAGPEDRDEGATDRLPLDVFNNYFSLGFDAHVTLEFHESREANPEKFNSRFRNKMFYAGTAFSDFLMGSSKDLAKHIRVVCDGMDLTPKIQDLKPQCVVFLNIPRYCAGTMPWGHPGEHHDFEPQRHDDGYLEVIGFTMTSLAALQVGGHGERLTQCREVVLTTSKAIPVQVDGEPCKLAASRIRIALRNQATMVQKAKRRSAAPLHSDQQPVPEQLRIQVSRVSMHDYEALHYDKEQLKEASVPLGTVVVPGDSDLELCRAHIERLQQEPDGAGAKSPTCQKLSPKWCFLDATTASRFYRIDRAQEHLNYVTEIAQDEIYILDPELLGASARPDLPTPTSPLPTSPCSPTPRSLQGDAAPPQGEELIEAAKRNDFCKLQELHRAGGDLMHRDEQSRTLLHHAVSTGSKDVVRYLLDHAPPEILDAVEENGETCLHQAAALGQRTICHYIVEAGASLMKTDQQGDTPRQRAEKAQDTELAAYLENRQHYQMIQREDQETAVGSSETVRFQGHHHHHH

As to `CC[C@H]1CN(C(C)c2ccc(C(F)(F)F)cc2F)[C@H](CC)CN1c1nc(=O)n(C)c2ccc(C#N)nc12` (single isomer, unassigned) [Example 26], the IC50 on human DGKα [1] turned out to be 81 nM; at human DGKζ it was 210 nM; at human DGKα [2], 29 nM; with whole blood (pERK), 240 nM. Also, in test [3], the EC50 was 180 nM.

As to `CCC(c1ccc(OC(F)(F)F)cc1)N1C[C@H](CC)N(c2nc(=O)n(C)c3ccc(C#N)nc23)C[C@H]1CC` (single isomer, unassigned) [Example 36], the IC50 at human DGKα [1] was determined as 16 nM; on human DGKζ, 75 nM; at human DGKα [2], 190 nM; with whole blood (pERK), 250 nM. The EC50 in test [3] amounted to 82 nM.

Regarding `CC[C@H]1CN(C(c2ccc(OC(F)(F)F)cc2)c2cc(C3CC3)on2)[C@H](CC)CN1c1nc(=O)n(C)c2ccc(C#N)nc12` (single isomer, unassigned) [Example 42], the IC50 amounted to 78 nM at human DGKα [1], 110 nM at human DGKζ, 7 nM at human DGKα [2] and 350 nM with whole blood (pERK). In addition, in test [3] (Homo sapiens), the EC50 is 81 nM.

Regarding `CC[C@H]1CN(C(c2ccc(OC(F)(F)F)cc2)c2cc(C3CC3)on2)[C@H](CC)CN1c1nc(=O)n(C)c2ccc(C#N)nc12` (single isomer, unassigned) [Example 43], the IC50 on human DGKα [1] amounted to 22 nM; on human DGKζ it was 130 nM; at human DGKα [2], 82 nM; with whole blood (pERK), 340 nM. In test [3], the EC50 was 120 nM.

For the compound `CCC(c1ccc(OC(F)(F)F)cc1)N1C[C@H](C)N(c2nc(=O)n(C)c3ccc(C#N)nc23)C[C@H]1CC` (single isomer, unassigned) [Example 83], the IC50 on human DGKα [1] stood at 97 nM; on human DGKζ it was 160 nM; at human DGKα [2] it was 15 nM; in the test on whole blood (pERK) it was 87 nM. Further, in test [3], the EC50 was determined as 17 nM.

As for `CC(c1ccc(OC(F)(F)F)cc1F)N1C[C@H](C)N(c2nc(=O)n(C)c3ccc(C#N)nc23)C[C@H]1C` (single isomer, unassigned) [Example 142], the IC50 at human DGKα [1] amounted to 52 nM; on human DGKζ it was 230 nM; in the test with whole blood (pERK), 100 nM. For the same compound, the EC50 in test [3] (Homo sapiens) is 3650 nM.

Take `CC(c1ccc(F)cc1F)N1C[C@H](C)N(c2nc(=O)n(C)c3ccc(C#N)nc23)C[C@H]1C` (single isomer, unassigned) [Example 145]: the IC50 on human DGKα [1] came to 1130 nM; at human DGKζ it was 1890 nM; in the test on whole blood (pERK), 750 nM. For the same compound, in test [3] (Homo sapiens), the EC50 amounted to 20000 nM.

Take `CC(c1ccc(Cl)cc1F)N1C[C@H](C)N(c2nc(=O)n(C)c3ccc(C#N)nc23)C[C@H]1C` (single isomer, unassigned) [Example 146]: the IC50 on human DGKα [1] came to 47 nM; at human DGKζ it was 44 nM; in the test on whole blood (pERK) it was 250 nM. Further, the EC50 in test [3] (Homo sapiens) came to 710 nM.

Consider `CC(c1ccc(F)c(F)c1)N1C[C@H](C)N(c2nc(=O)n(C)c3ccc(C#N)nc23)C[C@H]1C` (single isomer, unassigned) [Example 149], for which the IC50 on human DGKα [1] amounted to 4560 nM; at human DGKζ it was 1180 nM; in the test with whole blood (pERK), 1950 nM. In addition, the EC50 in test [3] was 8060 nM.

For the compound `CC(c1ccc(C(F)(F)F)cc1F)N1C[C@H](C)N(c2nc(=O)n(C)c3ccc(C#N)nc23)C[C@H]1C` (single isomer, unassigned) [Example 150], the IC50 on human DGKα [1] came to 350 nM; at human DGKζ, 200 nM; with whole blood (pERK), 140 nM. Moreover, in test [3] (Homo sapiens), the EC50 amounted to 480 nM.

With `CCC(c1ccc(OC(F)(F)F)cc1F)N1C[C@H](C)N(c2nc(=O)n(C)c3ccc(C#N)nc23)C[C@H]1C` (single isomer, unassigned) [Example 152], the IC50 on human DGKα [1] amounted to 29 nM; on human DGKζ, 92 nM; in the test on whole blood (pERK) it was 110 nM. In addition, the EC50 in test [3] came to 200 nM.

Take `CC(c1ccc(OC(F)F)cc1)N1C[C@H](C)N(c2nc(=O)n(C)c3ccc(C#N)nc23)C[C@H]1C` (single isomer, unassigned) [Example 157]: the figures for the IC50 on human DGKα [1], on human DGKζ and in the test on whole blood (pERK) were 330 nM, 1380 nM and 4360 nM, respectively. The EC50 in test [3] (Homo sapiens) stood at 1420 nM.

With `CC(c1ccc(OC(F)(F)F)c(F)c1)N1C[C@H](C)N(c2nc(=O)n(C)c3ccc(C#N)nc23)C[C@H]1C` (single isomer, unassigned) [Example 160], the IC50 at human DGKα [1] was 110 nM; at human DGKζ it was 250 nM; in the test with whole blood (pERK) it was 860 nM. Moreover, the EC50 in test [3] turned out to be 240 nM.

As for `C[C@@H]1CN(c2nc(=O)n(C)c3ccc(C#N)nc23)[C@@H](C)CN1C(c1ccc(F)cc1)c1ccon1` (single isomer, unassigned) [Example 163], the IC50 worked out at 38 nM at human DGKα [1], 460 nM on human DGKζ and 490 nM in the test on whole blood (pERK). The concentration giving a half-maximal response (EC50) in test [3] was 250 nM.

Consider `CC(c1ccc(C2CC2)cc1F)N1C[C@H](C)N(c2nc(=O)n(C)c3ccc(C#N)nc23)C[C@H]1C` (single isomer, unassigned) [Example 168], for which the IC50 on human DGKα [1] is 230 nM; on human DGKζ, 150 nM; in the test with whole blood (pERK), 220 nM. In addition, in test [3], the EC50 was 110 nM.

Consider `COC[C@@H]1CN(c2nc(=O)n(C)c3ccc(C#N)nc23)[C@@H](C)CN1C(C)c1ccc(OC(F)(F)F)cc1` (single isomer, unassigned) [Example 176], for which the figures for the IC50 at human DGKα [1], at human DGKζ and in the test with whole blood (pERK) were 180 nM, 110 nM and 210 nM, respectively. For the same compound, in test [3], the EC50 worked out at 190 nM.

On to `COC[C@@H]1CN(c2nc(=O)n(C)c3ccc(C#N)nc23)[C@@H](C)CN1C(C)c1ccc(OC(F)(F)F)cc1` (single isomer, unassigned) [Example 177], for which the figures for the IC50 on human DGKα [1], on human DGKζ and with whole blood (pERK) were 610 nM, 770 nM and 520 nM, respectively. The EC50 in test [3] came to 1710 nM.

Consider `CC(c1ccc(OC(F)(F)F)cc1)N1C[C@H](C)N(c2nc(=O)n(C)c3ccc(C#N)nc23)C[C@H]1CO` (single isomer, unassigned) [Example 183], for which the IC50 was 83 nM at human DGKα [1], 2690 nM on human DGKζ and 270 nM in the test with whole blood (pERK). For the same compound, in test [3], the EC50 worked out at 2330 nM.

On to `CC[C@H]1CN(C(c2ccc(F)cc2)c2nc(C3CC3)nn2C)[C@H](CC)CN1c1nc(=O)n(C)c2ccc(C#N)nc12` (single isomer, unassigned) [Example 294], for which the IC50 on human DGKα [1] worked out at 8290 nM; on human DGKζ, 42 nM; in the test with whole blood (pERK) it was 200 nM. Besides, the EC50 in test [3] (Homo sapiens) was 660 nM.

Regarding `CC[C@@H]1CN(c2nc(=O)n(C)c3ccc(C#N)nc23)[C@@H](C)CN1Cc1ccc(OC(F)(F)F)cc1` [Example 54, 4-((2S,5R)-5-ethyl-2-methyl-4-(4-(trifluoromethoxy)benzyl)piperazin-1-yl)-1-methyl-2-oxo-1,2-dihydropyrido[3,2-d]pyrimidine-6-carbonitrile], the IC50 worked out at 240 nM at human DGKα [1], 350 nM on human DGKζ and 910 nM in the test with whole blood (pERK). Also, the EC50 in test [3] (Homo sapiens) came out at 310 nM.

Consider `CC[C@H]1CN(C(c2ccc(F)cc2)c2ccc(C(F)(F)F)cn2)[C@H](C)CN1c1nc(=O)n(C)c2ccc(C#N)nc12` (stereo partly drawn) [Example 115, 4-((2S,5R)-2-ethyl-4-((4-fluorophenyl)(5-(trifluoromethyl)pyridin-2-yl)methyl)-5-methylpiperazin-1-yl)-1-methyl-2-oxo-1,2-dihydropyrido[3,2-d]pyrimidine-6-carbonitrile], for which the values for the IC50 at human DGKα [1], on human DGKζ and in the test on whole blood (pERK) were 160 nM, 2470 nM and 520 nM, respectively. Also, the EC50 in test [3] was found to be 230 nM.

With `CC[C@H]1CN(C(C)c2ccc(C(F)(F)F)cc2)[C@H](C)CN1c1nc(=O)n(C)c2ccc(C#N)nc12` (stereo partly drawn) [Example 117, 4-((2S,5R)-2-ethyl-5-methyl-4-(1-(4-(trifluoromethyl)phenyl)ethyl)piperazin-1-yl)-1-methyl-2-oxo-1,2-dihydropyrido[3,2-d]pyrimidine-6-carbonitrile], the IC50 at human DGKα [1] worked out at 2 nM; on human DGKζ, 2 nM; in the test on whole blood (pERK) it was 780 nM. Also, the 50% effective concentration (EC50) in test [3] came to 160 nM.

In the case of `C[C@@H]1CN(c2nc(=O)n(C)c3ccc(C#N)nc23)[C@@H](C)CN1C(c1ccc(F)cc1)c1ccc(F)cc1` [Example 124, 4-((2S,5R)-4-(bis(4-fluorophenyl)methyl)-2,5-dimethylpiperazin-1-yl)-1-methyl-2-oxo-1,2-dihydropyrido[3,2-d]pyrimidine-6-carbonitrile], the IC50 on human DGKα [1] came out at 560 nM; at human DGKζ, 2560 nM; with whole blood (pERK) it was 270 nM. The EC50 in test [3] (Homo sapiens) amounted to 500 nM.

As for `CC[C@H]1CN(C(C)c2ccc(C(C)(C)C#N)cc2)[C@H](CC)CN1c1nc(=O)n(C)c2ccc(C#N)nc12` (stereo partly drawn) [Example 196, 4-((2S,5R)-4-(1-(4-(2-cyanopropan-2-yl)phenyl)ethyl)-2,5-diethylpiperazin-1-yl)-1-methyl-2-oxo-1,2-dihydropyrido[3,2-d]pyrimidine-6-carbonitrile], the results for the IC50 at human DGKα [1], at human DGKζ and in the test on whole blood (pERK) were 120 nM, 12 nM and 49 nM, respectively. In test [3], the EC50 was found to be 31 nM.
